Patent publication US20220127262A1, “CRYSTALLINE FORM OF A CDK INHIBITOR” (Pfizer Inc., priority 2019, published 2022)

Columns and labels:
Format in all cases: physicochemical
[1] = Photostability study under ICH conditions, light source option 2; details: for Total impurities: ICH photostability
From the text: A photostability study was run under ICH conditions using light source option 2 ICH conditions.
(§1) Stability samples of drug substance were packaged in double low-density polyethylene (LDPE) bags and desiccant within high-density polyethylene (HDPE) drum. Photostability samples were stored in a quartz Petri dish with a quartz lid.

[2] = Solid-state chemical stability (long term and accelerated storage), total impurities by HPLC
Method: The chemical stability of PF-06873600 anhydrous free base (Form 1) was investigated at long term storage conditions (25° C./60% RH) for an extended time period and under accelerated stability conditions (40° C./75% RH) for a shorter period. Stability testing was conducted at 25° C./60% RH for 24 months (long term conditions) and at 40° C./75% RH for 6 months (accelerated conditions) and evaluated for appearance and purity by HPLC.
as §1

[3] = Water sorption and desorption, automated vapor sorption analyzer
Method: Water sorption and desorption studies were conducted on automated vapor sorption analyzer (TA instruments Q5000 SA). The microbalance was calibrated using a 100 mg standard weight. The relative humidity sensor was calibrated at 5.0, 11.3, 32.8, 52.8, 75.3, and 84.3% RH (25° C.) using saturated salt solutions. Approximately 30 mg of the powder sample was placed in the quartz sample holder and dried at ≤3% relative humidity (RH) at 25° C. The attainment of equilibrium was assumed when the weight change of the sample was <0.001 wt % in 5 min or by a maximum equilibration time of 120 minutes. […] The attainment of equilibrium was again assumed when the weight change of the sample was <0.001 wt % in 5 min or by a maximum equilibration time of 120 minutes. The weight gain at each of the % RH steps is based on the weight after the initial drying step. The data were analyzed using Universal Analysis software V4.5A.

Total impurities ([1]; light source option 2, 8 days): 0.64% | Total impurities ([1]; light source option 2, Initial): 0.58% | Total impurities ([2]; 25° C./60% RH, 3 mos.): 0.49% | Total impurities ([2]; 25° C./60% RH, 6 mos.): 0.48% | Total impurities ([2]; 25° C./60% RH, 12 mos.): 0.51% | Total impurities ([2]; 25° C./60% RH, 24 mos.): 0.59% | Total impurities ([2]; 25° C./60% RH, Initial): 0.5% | Total impurities ([2]; 40° C./75% RH, 3 mos.): 0.47% | Total impurities ([2]; 40° C./75% RH, 6 mos.): 0.47% | Total impurities ([2]; 40° C./75% RH, Initial): 0.5% | Water Content, Desorption ([3]; 25° C., 10% RH): −0.12 % w/w | Water Content, Sorption ([3]; 25° C., 10% RH): 0.00 % w/w | Water Content, Desorption ([3]; 25° C., 20% RH): −0.1 % w/w | Water Content, Sorption ([3]; 25° C., 20% RH): 0.02 % w/w | Water Content, Desorption ([3]; 25° C., 30% RH): −0.07 % w/w | Water Content, Sorption ([3]; 25° C., 30% RH): 0.04 % w/w | Water Content, Desorption ([3]; 25° C., 40% RH): −0.06 % w/w | Water Content, Sorption ([3]; 25° C., 40% RH): 0.06 % w/w | Water Content, Desorption ([3]; 25° C., 50% RH): −0.04 % w/w | Water Content, Sorption ([3]; 25° C., 50% RH): 0.07 % w/w | Water Content, Desorption ([3]; 25° C., 60% RH): −0.03 % w/w | Water Content, Sorption ([3]; 25° C., 60% RH): 0.07 % w/w | Water Content, Desorption ([3]; 25° C., 70% RH): −0.01 % w/w | Water Content, Sorption ([3]; 25° C., 70% RH): 0.08 % w/w | Water Content, Desorption ([3]; 25° C., 80% RH): 0.02 % w/w | Water Content, Sorption ([3]; 25° C., 80% RH): 0.08 % w/w | Water Content, Desorption ([3]; 25° C., 90% RH): 0.04 % w/w | Water Content, Sorption ([3]; 25° C., 90% RH): 0.04 % w/w | Change in solid form ([3]; after the water sorption study): no change in solid form | Weight gain ([3]; up to 90% RH): no significant weight gain | Hygroscopicity ([3]; water sorption study, 25° C.): not hygroscopic
Compound: C[C@@]1(O)CCC[C@H]1n1c(=O)c(C(F)F)cc2cnc(NC3CCN(S(C)(=O)=O)CC3)nc21 [PF-06873600 free base (Form 1), 6-(difluoromethyl)-8-[(1R,2R)-2-hydroxy-2-methylcyclopentyl]-2-{[1-(methylsulfonyl)piperidin-4-yl]amino}-pyrido[2,3-d]pyrimidin-7(8H)-one]
Appearance after photostability exposure ([1]; samples directly exposed to UV/Fluorescent conditions): change in appearance from an off-white powder to a pale-colored powder
